Data published in ChEMBL document CHEMBL3991601, “The target landscape of clinical kinase drugs” (Science, 2017).
The source made the active and inactive calls. Cut-off read from the data, not from the text of the source, for most assays here: actives have a measured Kd and inactives only a lower limit.

Legend:
[1] = target: Tyrosine-protein kinase ABL2 (Homo sapiens, UniProt P42684)
Actin-related protein 2 = Actin-related protein 2 (Homo sapiens, UniProt P61160)
[2] = target: Cyclin-dependent kinase 7 (Homo sapiens, UniProt P50613)
Sequence of Cyclin-dependent kinase 7 (P50613 whole entry): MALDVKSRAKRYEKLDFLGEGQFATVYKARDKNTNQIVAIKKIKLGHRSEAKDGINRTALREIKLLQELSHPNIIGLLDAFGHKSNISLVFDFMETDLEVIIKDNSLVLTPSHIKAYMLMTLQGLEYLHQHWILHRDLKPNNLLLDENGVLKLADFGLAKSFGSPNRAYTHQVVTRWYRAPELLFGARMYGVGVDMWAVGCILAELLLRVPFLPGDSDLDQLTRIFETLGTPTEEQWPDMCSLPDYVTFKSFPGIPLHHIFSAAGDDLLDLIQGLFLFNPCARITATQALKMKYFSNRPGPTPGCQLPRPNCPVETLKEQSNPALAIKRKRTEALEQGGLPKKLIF

[3] = target: Tyrosine-protein kinase Fer (Homo sapiens, UniProt P16591)
Sequence of Tyrosine-protein kinase Fer (P16591 whole entry): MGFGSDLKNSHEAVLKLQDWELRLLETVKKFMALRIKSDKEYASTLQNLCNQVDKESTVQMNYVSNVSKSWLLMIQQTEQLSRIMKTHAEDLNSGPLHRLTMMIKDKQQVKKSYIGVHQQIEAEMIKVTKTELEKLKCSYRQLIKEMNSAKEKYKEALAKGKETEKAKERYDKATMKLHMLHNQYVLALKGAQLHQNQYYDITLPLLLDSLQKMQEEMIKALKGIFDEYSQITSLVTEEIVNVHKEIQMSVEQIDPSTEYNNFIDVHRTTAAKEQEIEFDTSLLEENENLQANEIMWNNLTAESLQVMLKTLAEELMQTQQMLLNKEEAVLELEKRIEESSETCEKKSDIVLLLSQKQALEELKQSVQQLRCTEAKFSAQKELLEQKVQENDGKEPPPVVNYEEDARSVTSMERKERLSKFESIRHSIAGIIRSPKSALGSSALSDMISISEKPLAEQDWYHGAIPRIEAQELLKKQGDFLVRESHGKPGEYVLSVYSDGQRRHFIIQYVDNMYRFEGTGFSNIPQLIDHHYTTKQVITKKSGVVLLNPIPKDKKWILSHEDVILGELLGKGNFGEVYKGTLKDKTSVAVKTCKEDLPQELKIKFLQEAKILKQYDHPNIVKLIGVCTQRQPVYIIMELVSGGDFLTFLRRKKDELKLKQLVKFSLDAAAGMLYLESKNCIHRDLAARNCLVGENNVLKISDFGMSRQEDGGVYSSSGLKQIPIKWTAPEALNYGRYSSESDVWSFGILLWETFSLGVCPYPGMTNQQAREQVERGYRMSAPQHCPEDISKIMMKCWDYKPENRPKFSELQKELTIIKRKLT

[4] = target: Fibroblast growth factor receptor 1 (Homo sapiens, UniProt P11362)
Sequence of Fibroblast growth factor receptor 1 (P11362 whole entry): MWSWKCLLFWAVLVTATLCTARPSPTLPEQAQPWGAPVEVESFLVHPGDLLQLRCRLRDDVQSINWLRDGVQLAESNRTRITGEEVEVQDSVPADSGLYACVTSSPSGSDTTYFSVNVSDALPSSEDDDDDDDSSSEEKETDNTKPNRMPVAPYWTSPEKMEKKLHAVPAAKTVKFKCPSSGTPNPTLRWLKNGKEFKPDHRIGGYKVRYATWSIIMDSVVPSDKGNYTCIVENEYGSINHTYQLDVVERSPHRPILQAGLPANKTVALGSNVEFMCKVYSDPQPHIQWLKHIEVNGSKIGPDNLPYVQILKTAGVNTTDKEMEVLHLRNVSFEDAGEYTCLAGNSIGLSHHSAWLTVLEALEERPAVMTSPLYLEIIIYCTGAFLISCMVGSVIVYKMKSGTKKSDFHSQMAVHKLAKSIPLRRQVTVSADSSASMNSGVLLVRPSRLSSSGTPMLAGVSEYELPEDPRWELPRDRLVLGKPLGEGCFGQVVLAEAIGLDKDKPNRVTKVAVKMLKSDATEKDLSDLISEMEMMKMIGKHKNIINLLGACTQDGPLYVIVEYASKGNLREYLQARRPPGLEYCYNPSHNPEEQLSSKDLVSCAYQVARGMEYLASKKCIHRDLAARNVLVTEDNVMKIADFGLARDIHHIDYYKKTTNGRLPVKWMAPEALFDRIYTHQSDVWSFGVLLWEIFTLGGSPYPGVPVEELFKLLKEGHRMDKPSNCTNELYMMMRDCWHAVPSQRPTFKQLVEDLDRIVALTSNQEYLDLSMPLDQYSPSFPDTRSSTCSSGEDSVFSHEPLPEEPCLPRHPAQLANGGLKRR

[5] = target: Glycogen synthase kinase-3 beta (Homo sapiens, UniProt P49841)
Sequence of Glycogen synthase kinase-3 beta (P49841 whole entry): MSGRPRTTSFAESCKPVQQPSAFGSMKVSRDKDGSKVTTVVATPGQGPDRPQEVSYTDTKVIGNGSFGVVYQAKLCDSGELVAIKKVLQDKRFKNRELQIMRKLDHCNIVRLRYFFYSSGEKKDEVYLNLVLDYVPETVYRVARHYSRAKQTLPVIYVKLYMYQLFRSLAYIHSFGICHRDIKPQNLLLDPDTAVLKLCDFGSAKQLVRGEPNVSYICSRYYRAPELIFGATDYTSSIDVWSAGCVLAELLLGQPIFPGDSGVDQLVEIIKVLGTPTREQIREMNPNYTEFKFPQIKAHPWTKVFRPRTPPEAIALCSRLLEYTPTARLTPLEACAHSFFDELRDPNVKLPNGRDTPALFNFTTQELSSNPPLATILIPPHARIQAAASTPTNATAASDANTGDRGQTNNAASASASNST

[6] = target: MAP/microtubule affinity-regulating kinase 3 (Homo sapiens, UniProt P27448)
[7] = target: S-adenosylmethionine synthase isoform type-2 (Homo sapiens, UniProt P31153)
Sequence of S-adenosylmethionine synthase isoform type-2 (P31153 whole entry, canonical isoform): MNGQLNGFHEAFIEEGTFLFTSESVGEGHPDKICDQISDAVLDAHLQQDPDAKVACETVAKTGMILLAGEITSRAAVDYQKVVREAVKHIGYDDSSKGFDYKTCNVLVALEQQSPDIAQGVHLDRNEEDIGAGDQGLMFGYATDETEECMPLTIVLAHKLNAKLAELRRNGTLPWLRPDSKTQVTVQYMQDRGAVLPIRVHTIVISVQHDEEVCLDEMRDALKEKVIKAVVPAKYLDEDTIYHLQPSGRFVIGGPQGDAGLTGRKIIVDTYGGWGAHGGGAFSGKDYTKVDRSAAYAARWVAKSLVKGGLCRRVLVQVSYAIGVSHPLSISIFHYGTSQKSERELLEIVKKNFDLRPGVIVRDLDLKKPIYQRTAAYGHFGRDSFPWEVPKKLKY

[8] = target: T1, Membrane-associated tyrosine- and threonine-specific cdc2-inhibitory kinase (Homo sapiens, UniProt Q99640)
T1 sequence (Q99640 whole entry): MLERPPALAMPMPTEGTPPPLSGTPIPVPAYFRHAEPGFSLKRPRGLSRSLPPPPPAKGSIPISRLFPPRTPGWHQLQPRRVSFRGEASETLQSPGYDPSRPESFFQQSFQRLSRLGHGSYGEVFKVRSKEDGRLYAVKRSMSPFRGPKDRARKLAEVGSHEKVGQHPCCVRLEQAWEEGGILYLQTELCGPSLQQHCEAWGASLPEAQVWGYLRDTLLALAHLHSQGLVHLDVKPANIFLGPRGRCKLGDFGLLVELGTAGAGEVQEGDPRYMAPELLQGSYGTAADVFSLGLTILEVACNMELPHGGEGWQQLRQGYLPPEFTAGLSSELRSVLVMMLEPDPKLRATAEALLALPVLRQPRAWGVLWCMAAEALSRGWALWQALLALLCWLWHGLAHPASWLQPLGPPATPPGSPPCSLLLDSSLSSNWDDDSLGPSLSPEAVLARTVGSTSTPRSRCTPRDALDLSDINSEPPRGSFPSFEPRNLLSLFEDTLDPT

[9] = target: 26S proteasome regulatory subunit 6B (Homo sapiens, UniProt P43686)
Sequence of 26S proteasome regulatory subunit 6B (P43686 whole entry): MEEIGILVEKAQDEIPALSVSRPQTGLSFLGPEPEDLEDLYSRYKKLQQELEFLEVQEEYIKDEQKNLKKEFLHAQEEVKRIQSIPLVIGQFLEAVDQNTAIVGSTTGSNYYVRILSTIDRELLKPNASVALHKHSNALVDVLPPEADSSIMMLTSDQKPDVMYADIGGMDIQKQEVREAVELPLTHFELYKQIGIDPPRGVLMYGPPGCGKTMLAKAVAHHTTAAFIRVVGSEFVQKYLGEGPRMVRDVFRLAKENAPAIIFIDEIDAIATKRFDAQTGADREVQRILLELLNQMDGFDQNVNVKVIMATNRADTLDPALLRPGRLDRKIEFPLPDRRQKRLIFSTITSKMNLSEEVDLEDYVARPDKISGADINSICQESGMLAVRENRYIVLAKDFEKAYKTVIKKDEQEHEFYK

[10] = target: Receptor-interacting serine/threonine-protein kinase 3 (Homo sapiens, UniProt Q9Y572)
Sequence of Receptor-interacting serine/threonine-protein kinase 3 (Q9Y572 whole entry): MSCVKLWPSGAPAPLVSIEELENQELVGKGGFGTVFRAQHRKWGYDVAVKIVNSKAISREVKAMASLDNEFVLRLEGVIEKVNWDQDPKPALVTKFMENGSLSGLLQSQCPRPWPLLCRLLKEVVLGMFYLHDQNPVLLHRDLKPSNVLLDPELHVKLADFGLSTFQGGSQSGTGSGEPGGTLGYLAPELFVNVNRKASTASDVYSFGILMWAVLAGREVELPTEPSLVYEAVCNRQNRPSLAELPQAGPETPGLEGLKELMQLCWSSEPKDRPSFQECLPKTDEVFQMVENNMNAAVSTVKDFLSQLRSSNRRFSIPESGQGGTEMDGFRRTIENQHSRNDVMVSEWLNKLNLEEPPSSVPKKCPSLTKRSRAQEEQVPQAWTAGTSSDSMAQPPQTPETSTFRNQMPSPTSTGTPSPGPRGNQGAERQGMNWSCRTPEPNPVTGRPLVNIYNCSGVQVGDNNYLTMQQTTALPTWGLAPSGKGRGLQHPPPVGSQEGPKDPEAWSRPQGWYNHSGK

[11] = target: T2, STE20-related kinase adapter protein alpha (Homo sapiens, UniProt Q7RTN6)
T2 sequence (Q7RTN6 whole entry): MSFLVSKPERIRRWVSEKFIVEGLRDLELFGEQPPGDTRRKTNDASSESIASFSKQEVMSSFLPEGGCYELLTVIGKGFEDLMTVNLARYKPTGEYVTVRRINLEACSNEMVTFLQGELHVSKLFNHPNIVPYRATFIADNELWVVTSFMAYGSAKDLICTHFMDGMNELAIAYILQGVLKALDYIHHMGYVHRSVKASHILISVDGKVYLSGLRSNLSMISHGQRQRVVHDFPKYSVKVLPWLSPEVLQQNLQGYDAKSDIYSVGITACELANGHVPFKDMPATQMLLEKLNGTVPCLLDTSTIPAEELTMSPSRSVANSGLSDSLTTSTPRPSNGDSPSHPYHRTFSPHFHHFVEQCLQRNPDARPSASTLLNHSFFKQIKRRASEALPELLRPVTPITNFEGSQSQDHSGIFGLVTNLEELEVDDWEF

[12] = target: T3, Serine/threonine-protein kinase TAO2 (Homo sapiens, UniProt Q9UL54)
T3 sequence (Q9UL54 whole entry): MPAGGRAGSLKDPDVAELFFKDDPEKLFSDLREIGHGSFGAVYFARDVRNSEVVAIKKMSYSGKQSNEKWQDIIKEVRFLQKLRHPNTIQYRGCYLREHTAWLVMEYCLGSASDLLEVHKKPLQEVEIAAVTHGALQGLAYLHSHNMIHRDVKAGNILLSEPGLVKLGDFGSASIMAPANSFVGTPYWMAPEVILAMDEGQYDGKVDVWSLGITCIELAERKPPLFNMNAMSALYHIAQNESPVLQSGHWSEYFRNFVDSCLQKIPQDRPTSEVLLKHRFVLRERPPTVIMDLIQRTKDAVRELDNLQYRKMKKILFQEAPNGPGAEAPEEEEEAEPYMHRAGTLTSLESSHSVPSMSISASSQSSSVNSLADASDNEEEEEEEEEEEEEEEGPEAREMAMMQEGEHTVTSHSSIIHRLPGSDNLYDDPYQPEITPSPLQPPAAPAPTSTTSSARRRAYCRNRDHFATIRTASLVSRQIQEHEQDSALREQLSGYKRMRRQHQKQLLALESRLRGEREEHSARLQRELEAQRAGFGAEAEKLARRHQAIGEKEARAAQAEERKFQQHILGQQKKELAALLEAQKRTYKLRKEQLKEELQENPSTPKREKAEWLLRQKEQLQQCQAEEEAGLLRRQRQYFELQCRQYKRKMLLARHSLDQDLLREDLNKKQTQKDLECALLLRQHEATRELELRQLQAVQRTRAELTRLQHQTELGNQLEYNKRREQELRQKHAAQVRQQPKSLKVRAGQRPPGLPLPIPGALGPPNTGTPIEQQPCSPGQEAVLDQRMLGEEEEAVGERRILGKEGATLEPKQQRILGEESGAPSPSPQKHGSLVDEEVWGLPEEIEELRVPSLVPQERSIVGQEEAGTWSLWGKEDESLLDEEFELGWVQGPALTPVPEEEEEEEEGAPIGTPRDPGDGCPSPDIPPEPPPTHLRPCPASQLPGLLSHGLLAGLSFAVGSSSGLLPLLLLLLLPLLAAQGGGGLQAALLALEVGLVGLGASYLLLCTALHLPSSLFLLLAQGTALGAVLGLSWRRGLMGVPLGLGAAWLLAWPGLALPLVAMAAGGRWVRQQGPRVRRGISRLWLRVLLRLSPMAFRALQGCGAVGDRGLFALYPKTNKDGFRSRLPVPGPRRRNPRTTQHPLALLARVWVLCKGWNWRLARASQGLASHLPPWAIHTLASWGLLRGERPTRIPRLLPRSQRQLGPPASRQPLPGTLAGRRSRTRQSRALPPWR

[13] = target: Mitogen-activated protein kinase kinase kinase 20 (Homo sapiens, UniProt Q9NYL2)
Sequence of Mitogen-activated protein kinase kinase kinase 20 (Q9NYL2 whole entry): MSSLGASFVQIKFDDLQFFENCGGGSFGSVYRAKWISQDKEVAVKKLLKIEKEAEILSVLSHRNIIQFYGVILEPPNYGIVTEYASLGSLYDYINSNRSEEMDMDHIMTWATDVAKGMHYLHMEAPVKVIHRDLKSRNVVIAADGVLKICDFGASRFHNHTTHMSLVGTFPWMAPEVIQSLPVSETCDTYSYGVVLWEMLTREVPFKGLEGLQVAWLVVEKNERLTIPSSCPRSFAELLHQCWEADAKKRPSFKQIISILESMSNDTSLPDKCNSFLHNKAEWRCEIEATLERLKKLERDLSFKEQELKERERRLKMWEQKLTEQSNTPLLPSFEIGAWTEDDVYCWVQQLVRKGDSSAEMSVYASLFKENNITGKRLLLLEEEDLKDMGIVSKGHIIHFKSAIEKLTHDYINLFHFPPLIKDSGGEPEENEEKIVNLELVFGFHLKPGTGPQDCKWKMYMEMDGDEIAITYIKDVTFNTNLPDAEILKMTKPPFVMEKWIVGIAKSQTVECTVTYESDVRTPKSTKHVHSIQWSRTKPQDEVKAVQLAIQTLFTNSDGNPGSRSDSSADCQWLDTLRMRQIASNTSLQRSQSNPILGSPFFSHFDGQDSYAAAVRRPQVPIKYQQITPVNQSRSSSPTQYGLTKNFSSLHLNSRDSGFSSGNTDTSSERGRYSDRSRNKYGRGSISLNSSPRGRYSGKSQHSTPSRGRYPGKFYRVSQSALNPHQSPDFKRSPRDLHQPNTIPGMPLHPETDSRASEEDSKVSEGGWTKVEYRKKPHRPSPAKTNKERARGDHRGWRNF
Note: in the data inactive means no Kd found up to 30 µM.

## CC(C)Nc1cc(-c2c[nH]c(C(=O)N[C@H](CO)c3cccc(Cl)c3)c2)c(Cl)cn1 [ULIXERTINIB]
[1]
  Kd: > 30 µM (inactive)
Actin-related protein 2
  Kd: > 30 µM (inactive)
[2]
  Kd: > 30 µM (inactive)
[3]
  Kd: > 30 µM (inactive)
[4]
  Kd: > 30 µM (inactive)
[5]
  Kd: > 30 µM (inactive)
[6]
  Kd: > 30 µM (inactive)
[7]
  Kd: > 30 µM (inactive)
[8]
  Kd: > 30 µM (inactive)
[9]
  Kd: > 30 µM (inactive)
[10]
  Kd: > 30 µM (inactive)
[11]
  Kd: > 30 µM (inactive)
[12]
  Kd: > 30 µM (inactive)
[13]
  Kd: > 30 µM (inactive)

## Cc1ccc(-n2nc(C(C)(C)C)cc2NC(=O)NCc2cc(F)ccc2Oc2ccc3c(cnn3CCO)c2)cc1 [PEXMETINIB]
[1]
  Kd: 0.351 µM (active)
Actin-related protein 2
  Kd: > 30 µM (inactive)
[2]
  Kd: > 30 µM (inactive)
[3]
  Kd: > 30 µM (inactive)
[4]
  Kd: 2.67 µM (active)
[5]
  Kd: > 30 µM (inactive)
[6]
  Kd: > 30 µM (inactive)
[7]
  Kd: > 30 µM (inactive)
[8]
  Kd: > 30 µM (inactive)
[9]
  Kd: > 30 µM (inactive)
[10]
  Kd: 0.662 µM (active)
[11]
  Kd: > 30 µM (inactive)
[12]
  Kd: > 30 µM (inactive)
[13]
  Kd: 1.25 µM (active)

## CC(=O)Nc1cccc(-n2c(=O)n(C3CC3)c(=O)c3c(Nc4ccc(I)cc4F)n(C)c(=O)c(C)c32)c1 [TRAMETINIB]
[1]
  Kd: > 30 µM (inactive)
Actin-related protein 2
  Kd: > 30 µM (inactive)
[2]
  Kd: > 30 µM (inactive)
[3]
  Kd: > 30 µM (inactive)
[4]
  Kd: > 30 µM (inactive)
[5]
  Kd: > 30 µM (inactive)
[6]
  Kd: > 30 µM (inactive)
[7]
  Kd: > 30 µM (inactive)
[8]
  Kd: > 30 µM (inactive)
[9]
  Kd: > 30 µM (inactive)
[10]
  Kd: > 30 µM (inactive)
[11]
  Kd: > 30 µM (inactive)
[12]
  Kd: > 30 µM (inactive)
[13]
  Kd: > 30 µM (inactive)

## O=C(Nc1ccc(-c2ccnc(Nc3ccc(N4CCOCC4)cc3)n2)cc1)C1CCCN1 (centres undefined) [XL-019]
[1]
  Kd: > 30 µM (inactive)
Actin-related protein 2
  Kd: > 30 µM (inactive)
[2]
  Kd: > 30 µM (inactive)
[3]
  Kd: > 30 µM (inactive)
[4]
  Kd: > 30 µM (inactive)
[5]
  Kd: > 30 µM (inactive)
[6]
  Kd: 1.61 µM (active)
[7]
  Kd: > 30 µM (inactive)
[8]
  Kd: > 30 µM (inactive)
[9]
  Kd: > 30 µM (inactive)
[10]
  Kd: > 30 µM (inactive)
[11]
  Kd: > 30 µM (inactive)
[12]
  Kd: > 30 µM (inactive)
[13]
  Kd: > 30 µM (inactive)

## CCn1c(=O)c(-c2cc[nH]n2)cc2c(C)nc(N)nc21 [VOXTALISIB]
[1]
  Kd: > 30 µM (inactive)
Actin-related protein 2
  Kd: > 30 µM (inactive)
[2]
  Kd: > 30 µM (inactive)
[3]
  Kd: > 30 µM (inactive)
[4]
  Kd: > 30 µM (inactive)
[5]
  Kd: > 30 µM (inactive)
[6]
  Kd: > 30 µM (inactive)
[7]
  Kd: > 30 µM (inactive)
[8]
  Kd: > 30 µM (inactive)
[9]
  Kd: > 30 µM (inactive)
[10]
  Kd: > 30 µM (inactive)
[11]
  Kd: > 30 µM (inactive)
[12]
  Kd: > 30 µM (inactive)
[13]
  Kd: > 30 µM (inactive)

## COc1ccc(-c2ccc3c(N4CCOC[C@@H]4C)nc(N4CCOC[C@@H]4C)nc3n2)cc1CO [AZD-8055]
[1]
  Kd: > 30 µM (inactive)
Actin-related protein 2
  Kd: > 30 µM (inactive)
[2]
  Kd: > 30 µM (inactive)
[3]
  Kd: > 30 µM (inactive)
[4]
  Kd: > 30 µM (inactive)
[5]
  Kd: > 30 µM (inactive)
[6]
  Kd: > 30 µM (inactive)
[7]
  Kd: > 30 µM (inactive)
[8]
  Kd: > 30 µM (inactive)
[9]
  Kd: > 30 µM (inactive)
[10]
  Kd: > 30 µM (inactive)
[11]
  Kd: > 30 µM (inactive)
[12]
  Kd: > 30 µM (inactive)
[13]
  Kd: > 30 µM (inactive)

## N[C@@H]1CCCN(c2c(/C=C3\SC(=O)NC3=O)cccc2-c2ccccc2)C1
[1]
  Kd: > 30 µM (inactive)
Actin-related protein 2
  Kd: > 30 µM (inactive)
[2]
  Kd: > 30 µM (inactive)
[3]
  Kd: > 30 µM (inactive)
[4]
  Kd: > 30 µM (inactive)
[5]
  Kd: > 30 µM (inactive)
[6]
  Kd: > 30 µM (inactive)
[7]
  Kd: > 30 µM (inactive)
[8]
  Kd: > 30 µM (inactive)
[9]
  Kd: > 30 µM (inactive)
[10]
  Kd: > 30 µM (inactive)
[11]
  Kd: > 30 µM (inactive)
[12]
  Kd: > 30 µM (inactive)
[13]
  Kd: > 30 µM (inactive)

## CNC(=O)CN1CCC(Oc2cc3c(Nc4cccc(Cl)c4F)ncnc3cc2OC)CC1 [SAPITINIB]
[1]
  Kd: > 30 µM (inactive)
Actin-related protein 2
  Kd: > 30 µM (inactive)
[2]
  Kd: > 30 µM (inactive)
[3]
  Kd: > 30 µM (inactive)
[4]
  Kd: > 30 µM (inactive)
[5]
  Kd: > 30 µM (inactive)
[6]
  Kd: > 30 µM (inactive)
[7]
  Kd: > 30 µM (inactive)
[8]
  Kd: > 30 µM (inactive)
[9]
  Kd: > 30 µM (inactive)
[10]
  Kd: 1.17 µM (active)
[11]
  Kd: > 30 µM (inactive)
[12]
  Kd: > 30 µM (inactive)
[13]
  Kd: > 30 µM (inactive)

## CNC(=O)c1ccc(C)c(-n2c(C)cc(OCc3ccc(F)cc3F)c(Br)c2=O)c1 [PH-797804]
[1]
  Kd: > 30 µM (inactive)
Actin-related protein 2
  Kd: > 30 µM (inactive)
[2]
  Kd: > 30 µM (inactive)
[3]
  Kd: > 30 µM (inactive)
[4]
  Kd: > 30 µM (inactive)
[5]
  Kd: > 30 µM (inactive)
[6]
  Kd: > 30 µM (inactive)
[7]
  Kd: > 30 µM (inactive)
[8]
  Kd: > 30 µM (inactive)
[9]
  Kd: > 30 µM (inactive)
[10]
  Kd: > 30 µM (inactive)
[11]
  Kd: 0.672 µM
[12]
  Kd: > 30 µM (inactive)
[13]
  Kd: > 30 µM (inactive)

## CCN1CCN(Cc2ccc(-c3cc4c(N[C@H](C)c5ccccc5)ncnc4[nH]3)cc2)CC1 [AEE-788]
[1]
  Kd: 14.9 µM (active)
Actin-related protein 2
  Kd: > 30 µM (inactive)
[2]
  Kd: > 30 µM (inactive)
[3]
  Kd: > 30 µM (inactive)
[4]
  Kd: > 30 µM (inactive)
[5]
  Kd: > 30 µM (inactive)
[6]
  Kd: > 30 µM (inactive)
[7]
  Kd: > 30 µM (inactive)
[8]
  Kd: > 30 µM (inactive)
[9]
  Kd: > 30 µM (inactive)
[10]
  Kd: > 30 µM (inactive)
[11]
  Kd: > 30 µM (inactive)
[12]
  Kd: > 30 µM (inactive)
[13]
  Kd: 13.6 µM (active)

## CN1CC[C@@H](c2c(O)cc(O)c3c(=O)cc(-c4ccccc4Cl)oc23)[C@@H]1CO
[1]
  Kd: > 30 µM (inactive)
Actin-related protein 2
  Kd: > 30 µM (inactive)
[2]
  Kd: > 30 µM (inactive)
[3]
  Kd: > 30 µM (inactive)
[4]
  Kd: > 30 µM (inactive)
[5]
  Kd: 2.72 µM (active)
[6]
  Kd: > 30 µM (inactive)
[7]
  Kd: > 30 µM (inactive)
[8]
  Kd: > 30 µM (inactive)
[9]
  Kd: > 30 µM (inactive)
[10]
  Kd: > 30 µM (inactive)
[11]
  Kd: > 30 µM (inactive)
[12]
  Kd: > 30 µM (inactive)
[13]
  Kd: > 30 µM (inactive)
